A short description of series [1]: pKa (selection of counterions). The class given is physicochemical. The settings on record: weakly basic nature of the compound.
Series [2] is described as follows: Solubility study without acetic acid. Particulars: aqueous with cosolvent or surfactant or cyclodextrin, combination of ascorbic acid and lactic acid, read-out: solubilized at a concentration of. The format is physicochemical.
Series [3] in a line: Solubility of free amine in solvents. The format is physicochemical.
For series [4] the following is noted: counter ion selected for salt screening; cited from earlier work.

For orientation: pKa means the negative logarithm of the acid dissociation constant. Lower therefore signals a group that gives up its proton readily. Compound `Cn1c(=O)ccc2ccc(F)c(CCNC[C@H]3CN(c4cnc5c(n4)NC(=O)CO5)C(=O)O3)c21` [compound of Formula (I), (S)-6-(5-(((2-(7-fluoro-1-methyl-2-oxo-1,2-dihydroquinolin-8-yl)ethyl)amino)methyl)-2-oxooxazolidin-3-yl)-2H-pyrazino[2,3-b][1,4]oxazin-3(4H)-one] came in with a pKa in series [1] of about 6.81. The solubility in series [2] came out at 20 mg/mL. Besides, the solubility in solvents result in series [3] is “soluble only in dichloromethane and methanol (1:1) mixture”.
As for `CCS(=O)(=O)O` [ethane sulfonic acid], the “pKa (first value)” value in series [4] is 1.68.
